Where a SMILES comes first, the peptide text is derived from it. [ ]: non-standard residue; d: D form. The star is where a group is joined. dPhe(4-NHCONH2) = NC(=O)Nc1ccc(C[C@@H](N)C(=O)O)cc1; Dihydroorotyl(S) = O=C1C[C@@H](C(=O)*)NC(=O)N1; dPhe(4-Cl) = N[C@H](Cc1ccc(Cl)cc1)C(=O)O; Phe(4-NH2) = Nc1ccc(C[C@H](N)C(=O)O)cc1; d2Nal = N[C@H](Cc1ccc2ccccc2c1)C(=O)O; Lys(iPr) = CC(C)NCCCC[C@H](N)C(=O)O; d3Pal = N[C@H](Cc1cccnc1)C(=O)O
System: functional HSCs
Experiment: Adapted competitive repopulation functional assay (BM and spleen cells of treated L-TBI mice transplanted into irradiated hosts)
Type: in vivo, mouse
Conditions: cells collected day 14 after L-TBI; vs recipients of cells from vehicle-treated mice
Protocol: To investigate the specific regenerative effects mediated by LHRH-Ant treatment on the hematopoietic stem and progenitor cell (HSPC) compartment, BM were analyzed at several time points after L-TBI. […] To determine hematopoietic functional potential, colony-forming unit activity was next quantified to determine the effects of LHRH-Ant on the recovery of committed hematopoietic progenitor cells. […] Consistent with these functional findings, on day 14 after L-TBI, expansion of LSKs as well as their downstream progenitors in mice given LHRH-Ant were found (FIGS. 2F, 2G). […] However, given the changes in HSC phenotype after radiation, the standard competitive repopulation functional assay was adapted to evaluate the presence and relative quantity of functional HSCs after L-TBI. Specifically, all cells from the BM and spleen (to account for potential changes to circulating HSCs) were collected and transplanted from vehicle or LHRH-Ant treated mice at day 14 after L-TBI into irradiated hosts (along with a rescue dose of congenic WBM cells to ensure survival). […]
Bone marrow transplant: In the competitive BM transplant, whole BM from CD45.2+ (vehicle or LHRH-Ant) donors and were collected and transplanted into lethally irradiated CD45.1+ mice (1100 cGy TBI, split dose) along with 2.5×10^5 CD45.1+ competitors, through tail vein injection. Donor chimerism was monitored monthly after transplant. […]

SMILES: CC(=O)N[C@H](Cc1ccc2ccccc2c1)C(=O)N[C@H](Cc1ccc(Cl)cc1)C(=O)N[C@H](Cc1cccnc1)C(=O)N[C@@H](CO)C(=O)N[C@@H](Cc1ccc(NC(=O)[C@@H]2CC(=O)NC(=O)N2)cc1)C(=O)N[C@H](Cc1ccc(NC(N)=O)cc1)C(=O)N[C@@H](CC(C)C)C(=O)N[C@@H](CCCCNC(C)C)C(=O)N1CCC[C@H]1C(=O)N[C@H](C)C(N)=O [LHRH-Ant, Degarelix] (Ac-[d2Nal][dPhe(4-Cl)][d3Pal]S[Phe(4-NH2)](Dihydroorotyl(S))[dPhe(4-NHCONH2)]L[Lys(iPr)]P[dA]-NH2)
- hematopoietic reconstitution of host mice: significantly better hematopoietic reconstitution

— US12295973B2 (Fred Hutchinson Cancer Center, priority 2017, dated 2025)
